Data: ChEMBL document CHEMBL3045422, “Synthesis, characterization, and antimicrobial screening of some Mannich base sydnone derivatives” (2013)
≈ marks a conversion by molar mass, not a printed value.

Columns and labels:
Type in all cases: functional
Staphylococcus aureus [1] = assay: microbe, parasite or virus in culture
Bacillus subtilis [2] = assay: microbe, parasite or virus in culture; settings: read-out: IZ
Bacillus subtilis [3] = assay: microbe, parasite or virus in culture
Pseudomonas aeruginosa [4] = assay: microbe, parasite or virus in culture; settings: read-out: IZ
Escherichia coli [5] = assay: microbe, parasite or virus in culture
Candida albicans [6] = assay: Antifungal activity against Candida albicans at 300 ug/ml; settings: read-out: IZ
Escherichia coli [7] = assay: microbe, parasite or virus in culture; settings: read-out: IZ
Staphylococcus aureus [8] = assay: microbe, parasite or virus in culture; settings: read-out: IZ
Candida albicans [9] = assay: microbe, parasite or virus in culture
Pseudomonas aeruginosa [10] = assay: microbe, parasite or virus in culture

| SMILES | MIC (Staphylococcus aureus [1]) [µg/mL] | zone of inhibition at 300 µg/mL (Bacillus subtilis [2]) [mm] | MIC (Bacillus subtilis [3]) [µg/mL] | zone of inhibition at 300 µg/mL (Pseudomonas aeruginosa [4]) [mm] | MIC (Escherichia coli [5]) [µg/mL] | zone of inhibition at 300 µg/mL (Candida albicans [6]) [mm] | zone of inhibition at 300 µg/mL (Escherichia coli [7]) [mm] | zone of inhibition at 300 µg/mL (Staphylococcus aureus [8]) [mm] | MIC (Candida albicans [9]) [µg/mL] | MIC (Pseudomonas aeruginosa [10]) [µg/mL] |
| --- | --- | --- | --- | --- | --- | --- | --- | --- | --- | --- |
| COc1ccc(-[n+]2noc([O-])c2CNc2ccccc2Cl)cc1 | 300 (≈ 904 µM) | 12 | 300 (≈ 904 µM) | 10 | 300 (≈ 904 µM) | 12 | 12 | 12 | 300 (≈ 904 µM) | 500 (≈ 1510 µM) |
| COc1ccc(-[n+]2noc([O-])c2Cn2c(-c3ccccc3Br)nc3ccccc32)cc1 | 500 (≈ 1050 µM) | 12 | 300 (≈ 629 µM) | 13 | 200 (≈ 419 µM) | 13 | 14 | 10 | 200 (≈ 419 µM) | 200 (≈ 419 µM) |
| COc1ccc(-[n+]2noc([O-])c2CNc2ccc(F)cc2)cc1 | 200 (≈ 634 µM) | 16 | 200 (≈ 634 µM) | 11 | 100 (≈ 317 µM) | 17 | 17 | 14 | 100 (≈ 317 µM) | 300 (≈ 951 µM) |
| COc1ccc(NCc2c([O-])on[n+]2-c2ccc(OC)cc2)cc1 | 80 (≈ 244 µM) | 18 | 100 (≈ 305 µM) | 14 | 200 (≈ 611 µM) | 20 | 12 | 16 | 200 (≈ 611 µM) | 100 (≈ 305 µM) |
| COc1ccc(-[n+]2noc([O-])c2Cn2c(-c3cccc(Br)c3)nc3ccccc32)cc1 | 500 (≈ 1050 µM) | 10 | 500 (≈ 1050 µM) | 10 | 300 (≈ 629 µM) | 14 | 12 | 10 | 200 (≈ 419 µM) | 500 (≈ 1050 µM) |
| COc1ccc(-[n+]2noc([O-])c2CNc2nc3ccc(F)cc3s2)cc1 | 300 (≈ 806 µM) | 12 | 200 (≈ 537 µM) | 10 | 300 (≈ 806 µM) | 13 | 12 | 12 | 200 (≈ 537 µM) | 500 (≈ 1340 µM) |
| COc1ccc(-[n+]2noc([O-])c2Cn2c(-c3ccc(Cl)cc3Cl)nc3ccccc32)cc1 | 500 (≈ 1070 µM) | 10 | 500 (≈ 1070 µM) | 12 | 300 (≈ 642 µM) | 16 | 12 | 10 | 200 (≈ 428 µM) | 300 (≈ 642 µM) |
| COc1ccc(-[n+]2noc([O-])c2Cn2c(-c3ccc([N+](=O)[O-])cc3)nc3ccccc32)cc1 | 500 (≈ 1130 µM) | 12 | 300 (≈ 677 µM) | 12 | 60 (≈ 135 µM) | 12 | 18 | 10 | 200 (≈ 451 µM) | 300 (≈ 677 µM) |
| O=C(O)c1cn(C2CC2)c2cc(N3CCNCC3)c(F)cc2c1=O [CIPROFLOXACIN] | 50 (≈ 151 µM) | 31 | – | 23 | 25 (≈ 75.4 µM) | – | – | 30 | – | – |
| COc1ccc(-[n+]2noc([O-])c2CNc2nc3ccc(C)cc3s2)cc1 | 200 (≈ 543 µM) | 18 | 60 (≈ 163 µM) | 10 | 300 (≈ 814 µM) | 17 | 12 | 15 | 100 (≈ 271 µM) | 500 (≈ 1360 µM) |
| CC1(C)S[C@@H]2[C@H](NC(=O)[C@H](N)c3ccccc3)C(=O)N2[C@H]1C(=O)O [AMPICILLIN] | 250 (≈ 715 µM) | 26 | 100 (≈ 286 µM) | 29 | 100 (≈ 286 µM) | – | 31 | 30 | – | 100 (≈ 286 µM) |
| COc1ccc(-[n+]2noc([O-])c2CNc2cc(Cl)ccc2Cl)cc1 | 300 (≈ 819 µM) | 12 | 300 (≈ 819 µM) | 10 | 500 (≈ 1370 µM) | 13 | 10 | 11 | 300 (≈ 819 µM) | 500 (≈ 1370 µM) |
| COc1ccc(-[n+]2noc([O-])c2CNc2ccc(Br)cc2)cc1 | 300 (≈ 797 µM) | 13 | 200 (≈ 532 µM) | 13 | 300 (≈ 797 µM) | 15 | 12 | 10 | 200 (≈ 532 µM) | 200 (≈ 532 µM) |
| COc1ccc(-[n+]2noc([O-])c2CNc2nc3ccc(Cl)cc3s2)cc1 | 200 (≈ 514 µM) | 15 | 200 (≈ 514 µM) | 13 | 200 (≈ 514 µM) | 16 | 13 | 14 | 100 (≈ 257 µM) | 200 (≈ 514 µM) |
| COc1ccc(-[n+]2noc([O-])c2Cn2c(-c3ccc(Cl)cc3)nc3ccccc32)cc1 | 300 (≈ 693 µM) | 12 | 300 (≈ 693 µM) | 10 | 200 (≈ 462 µM) | 14 | 15 | 12 | 200 (≈ 462 µM) | 500 (≈ 1160 µM) |
| COc1ccc(-c2nc3ccccc3n2Cc2c([O-])on[n+]2-c2ccc(OC)cc2)cc1 | 300 (≈ 700 µM) | 12 | 200 (≈ 467 µM) | 12 | 300 (≈ 700 µM) | 14 | 15 | 11 | 200 (≈ 467 µM) | 300 (≈ 700 µM) |
| OC(Cn1cncn1)(Cn1cncn1)c1ccc(F)cc1F [FLUCONAZOLE] | – | – | – | – | – | 25 | – | – | 100 (≈ 327 µM) | – |
| COc1ccc(-[n+]2noc([O-])c2CNc2ccc(Cl)cc2)cc1 | 200 (≈ 603 µM) | 13 | 200 (≈ 603 µM) | 13 | 300 (≈ 904 µM) | 18 | 13 | 12 | 80 (≈ 241 µM) | 300 (≈ 904 µM) |
| CC1(C)S[C@@H]2[C@H](NC(=O)Cc3ccccc3)C(=O)N2[C@H]1C(=O)O [PENICILLIN G] | 0.125 (≈ 0.374 µM) | 35 | 0.25 (≈ 0.748 µM) | 38 | 0.5 (≈ 1.5 µM) | – | 30 | 45 | – | 0.25 (≈ 0.748 µM) |
| CN[C@@H]1[C@H](O[C@H]2[C@H](O[C@H]3[C@H](O)[C@@H](O)[C@H](N=C(N)N)[C@@H](O)[C@@H]3N=C(N)N)O[C@@H](C)[C@]2(O)C=O)O[C@@H](CO)[C@H](O)[C@H]1O [STREPTOMYCIN] | 0.125 (≈ 0.215 µM) | 40 | 0.25 (≈ 0.43 µM) | 34 | 1 (≈ 1.72 µM) | – | 28 | 40 | – | 0.5 (≈ 0.86 µM) |
